Experimental data: patent US4642340A, “Stable compounds of glucosamine sulphate” (Rotta Research Laboratorium S.p.A., priority 1981, dated 1987)
Where two headings read alike, the source gives them in different places.

Legend:
Acute toxicity in rats = test: Acute toxicity in rats; parameters: species or system Sprague Dawley albino rats; settings: rat, in vivo; for LD50 at 240 h: 10 days observation, read-out: DL50
Excerpt: Sprague Dawley albino rats having an average weight of about 150 g, subdivided into groups of 10 animals (5 males and 5 females) were used for each dose and for each method of administration.
The methods of administration were: oral by means of a gastric probe, intramuscular and endovenous into the caudal vein.
(§1) The observation time after administration was 10 days.

mice-embryo fibroblast [1] = test: Stimulation of the production of tissue-bound GAG in mice-embryo fibroblast cultures, uptake of ^35 S; format: cell-based, mice (strain C57 BL/6 stCrl); settings: Mus musculus, Fibroblast, 24 h, read-out: Δ % over non-treated controls, tissue-bound GAG
Protocol: (§2) For this purpose, primary cultures of mice-embryo fibroblasts (strain C57 BL/6 stCrl) were prepared by mechanical and enzymatic dissociation (in Trypsin Versene mixture-Microbiological Associates) of the embryos taken from the mother on the 18th day of pregnancy. The culture medium is the Eagle medium modified by Dulbecco and supplemented with 15% of calf foetus serum. The incubation atmosphere consists of 5% of carbon dioxide in air at 37° C. 24 hours after innoculation, the medium is replaced by a new medium containing the drug under examination and the radioactive precursor (Na2^35 SO4) for the measurement of the synthesis both of soluble and tissue-bound GAG; the culture is left to incubate for a further 24 hours and then the culture medium (containing the soluble GAG) and fibroblasts (containing the tissue-bound GAG) are separated.
(§3) The soluble GAG are isolated from the culture medium by precipitation with a solution of 5% trichloroacetic acid in ice-water while the fibroblast residues, containing the tissue-bound GAG, after repeated washings with physiological solutions, are dissolved in [sequence] or VERSENE.
(§4) The quantity of ^35 S incorporated both in the soluble GAG and in the tissue-bound GAG are evaluated by the usual scintillation methods and expressed in cpm (counts per minute).
(§5) The tests were carried out five times for each sample in order to allow the results to be evaluated statistically.

physchem = settings: solid storage, Titre of glucosamine
[2] = test system: granuloma from cotton pellets; test: Anti-inflammatory activity, granuloma induced by cotton pellets; format: in vivo, female albino rats of the Sprague Dawley strain; settings: 4 days; for Average dry weight of the granuloma (average ± s.e.): in mg (unit assumed)
Protocol: The test consists of evaluating the capacity of the substances under examination to inhibit the formation of granuloma following the subcutaneous implantation of extraneous bodies (in this case, cotton pellets). […] One group of animals was used as a control. […] After the subcutaneous implant of 2 cotton pellets each having a weight of 20 mg into the dorsal region, the animals were administered daily, for 4 consecutive days, with the substances under examination in the doses given above.

Acute toxicity in mice = test: Acute toxicity in mice; parameters: species or system Swiss NMRI mice; settings: mouse, in vivo; for LD50 at 240 h: 10 days observation, read-out: DL50
Excerpt: Swiss NMRI mice having an average weight of 20±2 g, subdivided in groups of 10 animals (5 females and 5 males) were used for each dose and for each method of administration.
The methods of administration were: oral by means of gastric probe, intramuscular and endovenous into the caudal vein.
as §1

mice-embryo fibroblast [3] = test: Stimulation of the production of soluble GAG in mice-embryo fibroblast cultures, uptake of ^35 S; format: cell-based, mice (strain C57 BL/6 stCrl); settings: Mus musculus, Fibroblast, 24 h, read-out: Δ % over non-treated controls, soluble GAG
Protocol: as §2, §3, §4, §5

[4] = im, intramuscular, max. dose 3000 mg/kg
[5] = iv, endovenous, max. dose 1500 mg/kg

N[C@H]1C(O)O[C@H](CO)[C@@H](O)[C@@H]1O.O=S(=O)(O)O (stereo partly shown) [Glucosamine sulphate, glucosamine sulphate]
LD50 at 240 h (Acute toxicity in rats; im, intramuscular): > 3000 mg/kg | mortality at 240 h (Acute toxicity in rats; [4]): 0% | LD50 at 240 h (Acute toxicity in rats; iv, endovenous): > 1500 mg/kg | mortality at 240 h (Acute toxicity in rats; [5]): 0% | LD50 at 240 h (Acute toxicity in rats; oral): > 5000 mg/kg | mortality at 240 h (Acute toxicity in rats; oral, max. dose 5000 mg/kg): 0% | activation at 10 µg/mL (mice-embryo fibroblast [1]): 32.7% | activation at 50 µg/mL (mice-embryo fibroblast [1]): 75.6% | activation at 100 µg/mL (mice-embryo fibroblast [1]): 94.7% | remaining at 8 h (physchem): 95.8% | remaining at 16 h (physchem): 73.8% | remaining at 72 h (physchem): 98.4% | remaining at 168 h (physchem): 98.3% | remaining at 360 h (physchem): 100% | remaining at 720 h (physchem): 99.4% | remaining at 1440 h (physchem): 98.1% | % Inhibition of granuloma ([2]; 300 mg/kg/os daily): 40.9% | Average dry weight of the granuloma (average ± s.e.) ([2]; 300 mg/kg/os daily): 91.2 ± 10.8 | % Inhibition of granuloma ([2]; 600 mg/kg/os daily): 54.1% | Average dry weight of the granuloma (average ± s.e.) ([2]; 600 mg/kg/os daily): 70.7 ± 7.9 | LD50 at 240 h (Acute toxicity in mice; im, intramuscular): > 3000 mg/kg | mortality at 240 h (Acute toxicity in mice; [4]): 0% | LD50 at 240 h (Acute toxicity in mice; iv, endovenous): > 1500 mg/kg | mortality at 240 h (Acute toxicity in mice; [5]): 0% | LD50 at 240 h (Acute toxicity in mice; oral): > 5000 mg/kg | mortality at 240 h (Acute toxicity in mice; oral, max. dose 5000 mg/kg): 0% | activation at 10 µg/mL (mice-embryo fibroblast [3]): 24.3% | activation at 50 µg/mL (mice-embryo fibroblast [3]): 96% | activation at 100 µg/mL (mice-embryo fibroblast [3]): 71.2% | Appearance (15° C., 30% R.H., 0 days): 1 | Titre of glucosamine (15° C., 30% R.H., 0 days): 98.7% | Appearance (15° C., 30% R.H., 7 days): 1 | Appearance (15° C., 30% R.H., 15 days): 1 | Appearance (15° C., 30% R.H., 30 days): 1 | Appearance (15° C., 30% R.H., 60 days): 1 | Appearance (15° C., 30% R.H., 120 days): 2 | Appearance (15° C., 30% R.H., 360 days): 2-3 | Appearance (15° C., 45% R.H., 0 days): 1 | Appearance (15° C., 45% R.H., 7 days): 1 | Appearance (15° C., 45% R.H., 15 days): 1 | Appearance (15° C., 45% R.H., 30 days): 1 | Appearance (15° C., 45% R.H., 60 days): 2 | Appearance (15° C., 45% R.H., 120 days): 4 | Appearance (15° C., 45% R.H., 360 days): 6 | Appearance (15° C., 60% R.H., 0 days): 1 | Appearance (15° C., 60% R.H., 3 days): 1 | Appearance (15° C., 60% R.H., 6 days): 3 | Appearance (15° C., 60% R.H., 12 days): 5 | Appearance (15° C., 60% R.H., 24 days): 6 | Appearance (15° C., 60% R.H., 36 days): 6 | Appearance (15° C., 60% R.H., 48 days): 6 | Appearance (25° C., 30% R.H., 0 days): 1 | Titre of glucosamine (25° C., 30% R.H., 0 days): 99.6% | Appearance (25° C., 30% R.H., 7 days): 1 | Appearance (25° C., 30% R.H., 15 days): 1 | Appearance (25° C., 30% R.H., 30 days): 1 | Appearance (25° C., 30% R.H., 60 days): 2 | Appearance (25° C., 30% R.H., 120 days): 3 | Appearance (25° C., 30% R.H., 360 days): 4 | Appearance (25° C., 45% R.H., 0 days): 1 | Titre of glucosamine (25° C., 45% R.H., 0 days): 100.5% | Appearance (25° C., 45% R.H., 3 days): 1 | Appearance (25° C., 45% R.H., 6 days): 1 | Appearance (25° C., 45% R.H., 12 days): 2 | Appearance (25° C., 45% R.H., 24 days): 3 | Appearance (25° C., 45% R.H., 36 days): 5 | Appearance (25° C., 45% R.H., 48 days): 6 | Time to complete decomposition (25° C., 60% R.H.): 36 h | Appearance (25° C., 60% R.H., 0 hours): 1 | Appearance (25° C., 60% R.H., 2 hours): 1 | Appearance (25° C., 60% R.H., 4 hours): 1 | Appearance (25° C., 60% R.H., 8 hours): 2 | Appearance (25° C., 60% R.H., 16 hours): 3 | Appearance (25° C., 60% R.H., 24 hours): 4 | Appearance (25° C., 60% R.H., 36 hours): 6 | Titre of glucosamine (solid storage, 24 h): 44.6% | Titre of glucosamine (solid storage, 72 h): 100.3% | Titre of glucosamine (solid storage, 576 h): 74.5% | Titre of glucosamine (solid storage, 864 h): 29.6%
